Test system: five species mix of representative oral bacterial species
Assay: resazurin cell viability assay (bacterial metabolism/viability)
Procedure: A five species mix of representative oral bacterial species was used to simulate the complex bacterial flora of the oral environment. A bacterial mix comprising Actinomyces viscosus, Lactobacillus casei, Streptococcus oralis, Fusobacteriaum nucleatum and Veillonella parvulal was incubated with the compound under investigation for 1 hour at 37° C., neutralized, washed and stained with 50 μg/ml resazurin solution. When viable bacteria are incubated with resazurin, the blue non-fluorescent dye is reduced by the bacteria to pink fluorescent resorufin. Fluorescence of the test sample is read at 560 nm excitation/590 nm emission and compared to the fluorescence of a standardized mixture of live and dead bacteria to determine the percentage of the initial population that is viable after incubation.
In order to minimize the effects of formula excipients, dilute 1:100 and 1:10 dentifrice slurries of formulations in water were used in the assay. As before, the test compound (as a dilute slurry) was incubated with the bacteria for 1 hour at 37° C., neutralized, washed and stained with 50 μg/ml resazurin solution. The percentage of viable bacteria was then determined.

## sodium lauryl ether sulfate [0.5 wt. % SLES]
Aqueous test solutions, incubated 1 hour at 37° C., resazurin 50 μg/ml, fluorescence 560/590 nm
  % bacteria viable following treatment: 19.94%

## zinc coceth sulfate [0.5 wt. % ZCS]
Solutions of Example 1, Table 1
  antibacterial efficacy compared with comparators (in words): significantly more efficacious than surfactant alone or an aqueous solution of 0.8 wt. % total elemental zinc
